Laboratory results from PubChem BioAssay (NCI).
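The compound was tested at five concentrations on cells cultured in 96-well plates, with a 48-hour exposure period. The concentration for 50% growth inhibition is given as GI50. Definition used: TGI = concentration required for complete inhibition of growth.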

Experiments:
Experiment in all cases: NCI anticancer screen, dose series, 48 h
SK-MEL-2 melanoma = test system: SK-MEL-2 melanoma
SN12C renal = test system: SN12C renal
BT-549 breast = test system: BT-549 breast
NCI-H460 lung = test system: NCI-H460 lung
PC-3 prostate = test system: PC-3 prostate
SK-MEL-5 melanoma = test system: SK-MEL-5 melanoma
A549 NSCLC = test system: A549 NSCLC
UACC-257 melanoma = test system: UACC-257 melanoma
CAKI-1 renal = test system: CAKI-1 renal
SW-620 colon = test system: SW-620 colon
RXF 393 renal = test system: RXF 393 renal
SNB-75 CNS = test system: SNB-75 CNS
MALME-3M melanoma = test system: MALME-3M melanoma
CCRF-CEM leukemia = test system: CCRF-CEM leukemia
NCI-H23 lung = test system: NCI-H23 lung
KM12 colon = test system: KM12 colon
RPMI-8226 leukemia = test system: RPMI-8226 leukemia
SNB-19 CNS = test system: SNB-19 CNS
HCT-116 colon = test system: HCT-116 colon
SK-OV-3 ovarian = test system: SK-OV-3 ovarian
786-0 renal = test system: 786-0 renal
LOX IMVI melanoma = test system: LOX IMVI melanoma
SF-295 CNS = test system: SF-295 CNS
SR leukemia = test system: SR leukemia
ACHN renal = test system: ACHN renal
IGROV1 ovarian = test system: IGROV1 ovarian
T-47D breast = test system: T-47D breast
HCC-2998 colon = test system: HCC-2998 colon
U251 CNS = test system: U251 CNS
HS 578T breast = test system: HS 578T breast
OVCAR-8 ovarian = test system: OVCAR-8 ovarian
NCI/ADR-RES ovarian = test system: NCI/ADR-RES ovarian
HOP-62 NSCLC = test system: HOP-62 NSCLC
COLO 205 colon = test system: COLO 205 colon
UO-31 renal = test system: UO-31 renal
K-562 leukemia = test system: K-562 leukemia
SF-268 CNS = test system: SF-268 CNS
A498 renal = test system: A498 renal
OVCAR-4 ovarian = test system: OVCAR-4 ovarian
DU-145 prostate = test system: DU-145 prostate
HCT-15 colon = test system: HCT-15 colon
NCI-H226 lung = test system: NCI-H226 lung
UACC-62 melanoma = test system: UACC-62 melanoma
HT29 colon = test system: HT29 colon
MDA-MB-435 = test system: MDA-MB-435
MDA-MB-231 breast = test system: MDA-MB-231 breast
MCF7 breast = test system: MCF7 breast
NCI-H522 lung = test system: NCI-H522 lung
SF-539 CNS = test system: SF-539 CNS
MOLT-4 leukemia = test system: MOLT-4 leukemia
SK-MEL-28 melanoma = test system: SK-MEL-28 melanoma
EKVX NSCLC = test system: EKVX NSCLC
OVCAR-5 ovarian = test system: OVCAR-5 ovarian
HL-60(TB) leukemia = test system: HL-60(TB) leukemia
OVCAR-3 ovarian = test system: OVCAR-3 ovarian
M14 melanoma = test system: M14 melanoma

Cn1c(=O)cc2c3c(c(NCCCO)ccc31)C(=O)c1ccccc1-2
GI50 (SK-MEL-2 melanoma): 6.85 µM | TGI (SK-MEL-2 melanoma): > 100 µM | GI50 (SN12C renal): 3.45 µM | TGI (SN12C renal): > 100 µM | GI50 (BT-549 breast): 6.67 µM | TGI (BT-549 breast): > 100 µM | GI50 (NCI-H460 lung): 2.31 µM | TGI (NCI-H460 lung): > 100 µM | GI50 (PC-3 prostate): 3 µM | TGI (PC-3 prostate): > 100 µM | GI50 (SK-MEL-5 melanoma): 3.97 µM | TGI (SK-MEL-5 melanoma): > 100 µM | GI50 (A549 NSCLC): 3.48 µM | TGI (A549 NSCLC): > 100 µM | GI50 (UACC-257 melanoma): 5.37 µM | TGI (UACC-257 melanoma): > 100 µM | GI50 (CAKI-1 renal): 1.79 µM | TGI (CAKI-1 renal): > 100 µM | GI50 (SW-620 colon): 0.875 µM | TGI (SW-620 colon): > 100 µM | GI50 (RXF 393 renal): 8.64 µM | TGI (RXF 393 renal): > 100 µM | GI50 (SNB-75 CNS): 4.36 µM | TGI (SNB-75 CNS): > 100 µM | GI50 (MALME-3M melanoma): 2.12 µM | TGI (MALME-3M melanoma): 7.35 µM | GI50 (CCRF-CEM leukemia): 3.29 µM | TGI (CCRF-CEM leukemia): > 100 µM | GI50 (NCI-H23 lung): 3.37 µM | TGI (NCI-H23 lung): > 100 µM | GI50 (KM12 colon): 6.34 µM | TGI (KM12 colon): > 100 µM | GI50 (RPMI-8226 leukemia): 2.89 µM | TGI (RPMI-8226 leukemia): > 100 µM | GI50 (SNB-19 CNS): 4.46 µM | TGI (SNB-19 CNS): > 100 µM | GI50 (HCT-116 colon): 0.491 µM | TGI (HCT-116 colon): > 100 µM | GI50 (SK-OV-3 ovarian): 9.81 µM | TGI (SK-OV-3 ovarian): > 100 µM | GI50 (786-0 renal): 1.53 µM | TGI (786-0 renal): > 100 µM | GI50 (LOX IMVI melanoma): 1.44 µM | TGI (LOX IMVI melanoma): 20.7 µM | GI50 (SF-295 CNS): 1.76 µM | TGI (SF-295 CNS): > 100 µM | GI50 (SR leukemia): 0.694 µM | TGI (SR leukemia): 13.4 µM | GI50 (ACHN renal): 1.21 µM | TGI (ACHN renal): > 100 µM | GI50 (IGROV1 ovarian): 4.98 µM | TGI (IGROV1 ovarian): > 100 µM | GI50 (T-47D breast): 13 µM | TGI (T-47D breast): > 100 µM | GI50 (HCC-2998 colon): 5.23 µM | TGI (HCC-2998 colon): > 100 µM | GI50 (U251 CNS): 2.6 µM | TGI (U251 CNS): > 100 µM | GI50 (HS 578T breast): 3.68 µM | TGI (HS 578T breast): > 100 µM | GI50 (OVCAR-8 ovarian): 1.48 µM | TGI (OVCAR-8 ovarian): > 100 µM | GI50 (NCI/ADR-RES ovarian): 5.2 µM | TGI (NCI/ADR-RES ovarian): > 100 µM | GI50 (HOP-62 NSCLC): 19.2 µM | TGI (HOP-62 NSCLC): > 100 µM | GI50 (COLO 205 colon): 3.86 µM | TGI (COLO 205 colon): > 100 µM | GI50 (UO-31 renal): 1.09 µM | TGI (UO-31 renal): > 100 µM | GI50 (K-562 leukemia): 2.09 µM | TGI (K-562 leukemia): 64.3 µM | GI50 (SF-268 CNS): 6.75 µM | TGI (SF-268 CNS): > 100 µM | GI50 (A498 renal): 1.77 µM | TGI (A498 renal): > 100 µM | GI50 (OVCAR-4 ovarian): 7.89 µM | TGI (OVCAR-4 ovarian): > 100 µM | GI50 (DU-145 prostate): 7.62 µM | TGI (DU-145 prostate): > 100 µM | GI50 (HCT-15 colon): 3.86 µM | TGI (HCT-15 colon): > 100 µM | GI50 (NCI-H226 lung): 3.01 µM | TGI (NCI-H226 lung): > 100 µM | GI50 (UACC-62 melanoma): 2.45 µM | TGI (UACC-62 melanoma): > 100 µM | GI50 (HT29 colon): 2.16 µM | TGI (HT29 colon): > 100 µM | GI50 (MDA-MB-435): 3.47 µM | TGI (MDA-MB-435): > 100 µM | GI50 (MDA-MB-231 breast): 4.77 µM | TGI (MDA-MB-231 breast): > 100 µM | GI50 (MCF7 breast): 3.46 µM | TGI (MCF7 breast): > 100 µM | GI50 (NCI-H522 lung): 2.5 µM | TGI (NCI-H522 lung): > 100 µM | GI50 (SF-539 CNS): 8.8 µM | TGI (SF-539 CNS): > 100 µM | GI50 (MOLT-4 leukemia): 2.07 µM | TGI (MOLT-4 leukemia): > 100 µM | GI50 (SK-MEL-28 melanoma): 38 µM | TGI (SK-MEL-28 melanoma): > 100 µM | GI50 (EKVX NSCLC): 5.23 µM | TGI (EKVX NSCLC): > 100 µM | GI50 (OVCAR-5 ovarian): 32.8 µM | TGI (OVCAR-5 ovarian): > 100 µM | GI50 (HL-60(TB) leukemia): 2.98 µM | TGI (HL-60(TB) leukemia): > 100 µM | GI50 (OVCAR-3 ovarian): 5.69 µM | TGI (OVCAR-3 ovarian): > 100 µM | GI50 (M14 melanoma): 3.13 µM | TGI (M14 melanoma): > 100 µM
